Consider two molecules from patent US10105552B2, “Formulations of histone deacetylase inhibitor and uses thereof” (Pharmacyclics LLC, priority 2009, dated 2018).

Data set [1] concerns tumor cell lines. The experiment in a line: Preclinical activity against tumor cell lines. Type of data set: cell-based. The note with it: many tumor cell lines.
Data set [2] has as its system RAD51. The experiment in a line: Pre-clinical models, DNA repair gene expression.
The test system of data set [3] is primary human tumors from patients with colon, ovarian, lung and many hematological cancers. Nature of the data set: Ex vivo activity in primary human tumors. Type of data set: cell-based.
The subject of data set [4] is lung, colon, prostate, pancreatic and brain tumors. The experiment in a line: Preclinical mouse tumor models. Type of data set: in vivo.
Data set [5] is described as follows: Clinical trial PK of Compound 1 solution, oral and IV dosing. To be noted: human, in vivo, humans. As for the experimental part:
In clinical trials involving humans with cancer, Compound 1 in solution form was administered at 2 mg/kg as a single oral dose and as multiple 2-hour IV infusion doses.
Compound 1 appears to be preferentially absorbed in the intestines.

Data set [6] is described as follows: Phase 1 trial, safety/tolerability and response by oral dosing schedule. It counts as in vivo. As for the experimental part: This is a Phase 1 dose-escalation study of the safety, pharmacokinetics, and pharmacodynamics of Compound 1, HCl administered orally in patients with advanced cancer.
In the Phase 1 dose escalation study, up to 7 cohorts will receive Compound 1, HCl orally at doses starting at 30 mg/m^2, approximately 4-6 hours apart, up to 90 mg/m^2, 2 or 3 times a day according to 3 different dosing schedules within 28 day cycle (5 days of dosing followed by 2 days of no dosing; 5 days of dosing followed by 9 days of no dosing; 7 days of dosing followed by 7 days of no dosing) until the maximum tolerated dose is reached.
The doses were given at the same time each day. […] The two doses were given at the same time each day, with the second dose being administered approximately 4 to 6 hours from the first dose.
In the event that a patient experiences a treatment-related decrease in platelets to <25,000 per mm^2, the severity of the thrombocytopenia may be ameliorated by dosing in cycles consisting 5 consecutive days of oral dosing followed by 9 consecutive days without dosing.

Data set [7] relates to Neuroblastoma cell lines and patient-derived primary neuroblastoma cultures. Nature of the data set: Neuroblastoma cell viability, calcein AM assay. Type of data set: cell-based. The note with it: 48 hours treatment. As for the experimental part: Neuroblastoma cell lines and patient-derived primary neuroblastoma cultures were treated with bortezomib, Compound 1 alone or a combination of both agents for 48 hours. Cells were also treated with HDAC inhibitors vorinostat, sodium butyrate, and valproic acid and viability was assessed by calcein AM assays. mRNA from treated cells was evaluated at 6 and 24 hours using U133+ mRNA expression arrays and Ingenuity analysis. Dichlorofluorescein (DCF) was used to measure reactive oxygen species (ROS). Cell viability assays were repeated in the presence of N-acetylcysteine (NAC). Western blot evaluated caspase-3 and PARP cleavage. Nude mice were injected with 10^7 SMS-KCNR cells subcutaneously and treated with daily doses of 0.5 mg/kg bortezomib, 12.5 mg/kg Compound 1, or a combination of the two agents. Tumors were measured and imaged twice per week.

The term bioavailability denotes the share of a dose that reaches the circulation, judged against a reference dose that is usually intravenous. Read a low bioavailability as poor availability. Usually IC50 stands for the midpoint of a concentration-inhibition curve.

Take `CN(C)Cc1c(C(=O)NCCOc2ccc(C(=O)NO)cc2)oc2ccccc12` [Compound 1, N-hydroxy-4-{2-[3-(N,N-dimethylaminomethyl)benzofuran-2-ylcarbonylamino]ethoxy}-benzamide]: the “activity against tumor cell lines” value in data set [1] is recorded as “active”. Moreover, the “effect on RAD51 (and other DNA repair genes)” value in data set [2] is “able to turn off RAD51”. Besides, in data set [3], the “ex vivo activity in primary human tumors” value was “active”. The “efficacy in mouse tumor models” value in data set [4] is reported as “efficacious”. In addition, the bioavailability is approximately 27% in data set [5] (2 mg/kg, immediate release capsules or an oral solution) and approximately 27% in data set [5] (from AUC0-∞ oral vs IV, 2 mg/kg solution). In addition, the therapeutic effect entry in data set [6] (immediate release capsule, 2 or 3 consecutive doses each 4 to 6 hours apart on dosing days) was “achieved”. Further, the “incidence of Grade 4 thrombocytopenia (platelet count <25,000 per mm^2)” value in data set [6] (in vivo, po) is “limited incidence”. Also, in data set [6] (solid tumor and lymphoma patients, cycles of 7 days oral dosing then 7 days without dosing), the pharmacodynamic response result is on record as “achieved”. The half-maximal inhibitory concentration (IC50) in data set [7] was less than 200 nM.

As for `CC(C)C[C@H](NC(=O)[C@H](Cc1ccccc1)NC(=O)c1cnccn1)B(O)O` [bortezomib, reference compound], in data set [7], the IC50 was less than 50 nM.
